Measured values taken from patent US10251395B2, “Substituted furano-/thienocycloalkylamino-2-pyrimidine derivatives and use thereof for controlling undesired plant growth” (Bayer CropScience Aktiengesellschaft, priority 2015, dated 2019).

Key:
Assay type in all cases: in vivo
[1] = test system: Amaranthus retroflexus; experiment: Pre-emergence herbicidal effect; conditions: scored visually after 3 weeks
From the text: (§1) Seeds of monocotyledonous and dicotyledonous weed plants and crop plants are laid out in wood-fiber pots in sandy loam and covered with soil. The compounds of the invention, formulated in the form of wettable powders (WP) or as emulsion concentrates (EC), are then applied to the surface of the covering soil as aqueous suspension or emulsion at a water application rate equating to 600 to 800 L/ha with addition of 0.2% wetting agent.
(§2) After the treatment, the pots are placed in a greenhouse and kept under good growth conditions for the trial plants. The damage to the test plants is scored visually after a test period of 3 weeks by comparison with untreated controls (herbicidal activity in percent (%): 100% activity=the plants have died, 0% activity=like control plants).
(§3) • ABUTH: Abutilon theophrasti ALOMY: Alopecurus myosuroides • AMARE: Amaranthus retroflexus AVEFA: Avena fatua • CYPES: Cyperus esculentus ECHCG: Echinochloa crus-galli • LOLMU: Lolium multiflorum MATIN: Matricaria inodora • PHBPU: Ipomoea purpurea POLCO: Polygonum convolvulus • SETVI: Setaria viridis STEME: Stellaria media • VERPE: Veronica persica VIOTR: Viola tricolor

[2] = test system: Matricaria inodora; experiment: Pre-emergence herbicidal effect; conditions: scored visually after 3 weeks
From the text: as §1, §2, §3

[3] = test system: Echinochloa crus-galli; experiment: Pre-emergence herbicidal effect; conditions: scored visually after 3 weeks
From the text: as §1, §2, §3

[4] = test system: Veronica persica; experiment: Pre-emergence herbicidal effect; conditions: scored visually after 3 weeks
From the text: as §1, §2, §3

[5] = test system: Polygonum convolvulus; experiment: Pre-emergence herbicidal effect; conditions: scored visually after 3 weeks
From the text: as §1, §2, §3

[6] = test system: Abutilon theophrasti; experiment: Pre-emergence herbicidal effect; conditions: scored visually after 3 weeks
From the text: as §1, §2, §3

[7] = test system: Setaria viridis; experiment: Pre-emergence herbicidal effect; conditions: scored visually after 3 weeks
From the text: as §1, §2, §3

[8] = test system: Viola tricolor; experiment: Pre-emergence herbicidal effect; conditions: scored visually after 3 weeks
From the text: as §1, §2, §3

[9] = test system: Stellaria media; experiment: Pre-emergence herbicidal effect; conditions: scored visually after 3 weeks
From the text: as §1, §2, §3

[10] = test system: Amaranthus retroflexus; experiment: Post-emergence herbicidal effect; conditions: assessed visually after about 3 weeks vs untreated controls
From the text: (§4) • ABUTH: Abutilon theophrasti ALOMY: Alopecurus myosuroides • AMARE: Amaranthus retroflexus AVEFA: Avena fatua • CYPES: Cyperus esculentus ECHCG: Echinochloa crus-galli • LOLMU: Lolium multiflorum MATIN: Matricaria inodora • PHBPU: Ipomoea purpurea POLCO: Polygonum convolvulus • SETVI: Setaria viridis STEME: Stellaria media • VERPE: Veronica persica VIOTR: Viola tricolor Seeds of monocotyledonous and dicotyledonous weed and crop plants are laid out in sandy loam in wood-fiber pots, covered with soil and cultivated in a greenhouse under good growth conditions. 2 to 3 weeks after sowing, the test plants are treated at the one-leaf stage. The compounds of the invention, formulated in the form of wettable powders (WP) or as emulsion concentrates (EC), are then sprayed onto the green parts of the plants as aqueous suspension or emulsion at a water application rate equating to 600 to 800 L/ha with addition of 0.2% wetting agent. After the test plants have been left to stand in the greenhouse under optimal growth conditions for about 3 weeks, the action of the preparations is assessed visually in comparison to untreated controls (herbicidal action in percent (%): 100% activity=the plants have died, 0% activity=like control plants).

[11] = test system: Echinochloa crus-galli; experiment: Post-emergence herbicidal effect; conditions: 320 g/ha, assessed visually after about 3 weeks vs untreated controls
From the text: as §4

[12] = test system: Veronica persica; experiment: Post-emergence herbicidal effect; conditions: assessed visually after about 3 weeks vs untreated controls
From the text: as §4

[13] = test system: Abutilon theophrasti; experiment: Post-emergence herbicidal effect; conditions: assessed visually after about 3 weeks vs untreated controls
From the text: as §4

[14] = test system: Viola tricolor; experiment: Post-emergence herbicidal effect; conditions: assessed visually after about 3 weeks vs untreated controls
From the text: as §4

[15] = test system: Stellaria media; experiment: Post-emergence herbicidal effect; conditions: assessed visually after about 3 weeks vs untreated controls
From the text: as §4

[16] = test system: Ipomoea purpurea; experiment: Post-emergence herbicidal effect; conditions: 320 g/ha, assessed visually after about 3 weeks vs untreated controls
From the text: as §4

[17] = test system: Lolium multiflorum; experiment: Pre-emergence herbicidal effect; conditions: Dosage 320 g/ha, scored visually after 3 weeks
From the text: as §1, §2, §3

[18] = test system: Alopecurus myosuroides; experiment: Pre-emergence herbicidal effect; conditions: Dosage 320 g/ha, scored visually after 3 weeks
From the text: as §1, §2, §3

[19] = test system: Matricaria inodora; experiment: Post-emergence herbicidal effect; conditions: assessed visually after about 3 weeks vs untreated controls
From the text: as §4

[20] = test system: Setaria viridis; experiment: Post-emergence herbicidal effect; conditions: assessed visually after about 3 weeks vs untreated controls
From the text: as §4

Row | Compound | AMARE pre-emergence efficacy (herbicidal activity) ([1]; Dosage 80 g/ha) | AMARE pre-emergence efficacy (herbicidal activity) ([1]; Dosage 320 g/ha) | MATIN pre-emergence efficacy (herbicidal activity) ([2]; Dosage 80 g/ha) | MATIN pre-emergence efficacy (herbicidal activity) ([2]; Dosage 320 g/ha) | ECHCG pre-emergence efficacy (herbicidal activity) ([3]; Dosage 320 g/ha) | VERPE pre-emergence efficacy (herbicidal activity) ([4]; Dosage 80 g/ha) | VERPE pre-emergence efficacy (herbicidal activity) ([4]; Dosage 320 g/ha) | POLCO pre-emergence efficacy (herbicidal activity) ([5]; Dosage 320 g/ha) | SETVI pre-emergence efficacy (herbicidal activity) ([7]; Dosage 80 g/ha) | SETVI pre-emergence efficacy (herbicidal activity) ([7]; Dosage 320 g/ha) | VIOTR pre-emergence efficacy (herbicidal activity) ([8]; Dosage 80 g/ha) | VIOTR pre-emergence efficacy (herbicidal activity) ([8]; Dosage 320 g/ha) | STEME pre-emergence efficacy (herbicidal activity) ([9]; Dosage 80 g/ha) | STEME pre-emergence efficacy (herbicidal activity) ([9]; Dosage 320 g/ha) | post-emergence efficacy AMARE ([10]; 320 g/ha) | post-emergence efficacy VERPE ([12]; 320 g/ha) | post-emergence efficacy ABUTH ([13]; 320 g/ha) | post-emergence efficacy VIOTR ([14]; 320 g/ha) | post-emergence efficacy VIOTR ([14]; 80 g/ha) | post-emergence efficacy AMARE ([10]; 80 g/ha) | further results
1 | Cc1cc2c(s1)CCCC2Nc1nc(N)c(S(C)(=O)=O)c(Cl)n1 (racemic) [compound 16] | 90% | 100% | 100% | 100% | 100% | 100% | 100% | 40% | 20% | 100% | 100% | 100% | 100% | 100% | 90% | 80% | 90% | 90% | – | – | ECHCG pre-emergence efficacy (herbicidal activity) ([3]; Dosage 80 g/ha): 100%; POLCO pre-emergence efficacy (herbicidal activity) ([5]; Dosage 80 g/ha): 20%; ABUTH pre-emergence efficacy (herbicidal activity) ([6]; Dosage 80 g/ha): 40%; ABUTH pre-emergence efficacy (herbicidal activity) ([6]; Dosage 320 g/ha): 40%; post-emergence efficacy ECHCG [11]: 100%; post-emergence efficacy STEME ([15]; 320 g/ha): 90%
2 | Cc1cc2c(s1)CCCC2Nc1nc(N)c([S+](C)[O-])c(Cl)n1 (racemic) [compound 39] | – | 100% | 100% | 100% | 100% | – | 100% | 90% | 100% | 100% | 100% | 100% | 100% | 100% | – | – | – | 80% | 80% | – | ECHCG pre-emergence efficacy (herbicidal activity) ([3]; Dosage 80 g/ha): 80%; POLCO pre-emergence efficacy (herbicidal activity) ([5]; Dosage 80 g/ha): 80%; ABUTH pre-emergence efficacy (herbicidal activity) ([6]; Dosage 320 g/ha): 80%; post-emergence efficacy PHBPU [16]: 80%
3 | Nc1nc(NC2CCCc3sccc32)ncc1C(F)(F)F (racemic) [compound 70] | 100% | 100% | 100% | 100% | 100% | 90% | 100% | 100% | 100% | 100% | 100% | 100% | 100% | 100% | 100% | – | – | 100% | – | 40% | LOLMU pre-emergence efficacy (herbicidal activity) [17]: 100%; post-emergence efficacy ECHCG [11]: 80%; post-emergence efficacy STEME ([15]; 80 g/ha): 100%; post-emergence efficacy STEME ([15]; 320 g/ha): 100%
4 | Cc1cc2c(s1)CCCC2Nc1ncc(C(N)=O)c(N)n1 (racemic) [compound 267] | 100% | 100% | – | – | 90% | 100% | 100% | – | 80% | 80% | 90% | 100% | 100% | 100% | 80% | 80% | 80% | 90% | 80% | 80% | ALOMY pre-emergence efficacy (herbicidal activity) [18]: 80%; post-emergence efficacy PHBPU [16]: 80%; post-emergence efficacy MATIN ([19]; 80 g/ha): 80%; post-emergence efficacy MATIN ([19]; 320 g/ha): 80%; post-emergence efficacy VERPE ([12]; 80 g/ha): 80%; post-emergence efficacy ABUTH ([13]; 80 g/ha): 80%; post-emergence efficacy SETVI ([20]; 320 g/ha): 60%; post-emergence efficacy STEME ([15]; 80 g/ha): 80%; post-emergence efficacy STEME ([15]; 320 g/ha): 100%
5 | Cc1cc2c(s1)CCCC2Nc1ncc(-c2cncc(C(F)(F)F)c2)c(N)n1 (racemic) [compound 290] | – | 100% | 90% | 100% | 100% | 100% | 100% | 80% | 60% | 100% | 100% | 100% | 100% | 100% | 80% | 100% | 60% | 90% | 60% | 80% | ALOMY pre-emergence efficacy (herbicidal activity) [18]: 80%; POLCO pre-emergence efficacy (herbicidal activity) ([5]; Dosage 80 g/ha): 50%; LOLMU pre-emergence efficacy (herbicidal activity) [17]: 100%; post-emergence efficacy MATIN ([19]; 80 g/ha): 80%; post-emergence efficacy MATIN ([19]; 320 g/ha): 90%; post-emergence efficacy ABUTH ([13]; 80 g/ha): 60%; post-emergence efficacy SETVI ([20]; 320 g/ha): 60%
6 | Cc1cc2c(s1)CCCC2Nc1ncc(-c2ccccc2)c(N)n1 (racemic) [compound 296] | – | – | 90% | 100% | – | 100% | 100% | – | 70% | 100% | 60% | 100% | – | 90% | 90% | 90% | 70% | 80% | 70% | 60% | post-emergence efficacy MATIN ([19]; 320 g/ha): 60%; post-emergence efficacy SETVI ([20]; 80 g/ha): 40%; post-emergence efficacy SETVI ([20]; 320 g/ha): 70%
